Test results from patent publication US20250346593A1, “IMIDAZO(1,2-1)PYRIDINE DERIVATIVES AS RIPK2 INHIBITORS” (Interline Therapeutics, Inc., priority 2022, published 2025).
Where two headings read alike, the source gives them in different places.

How the values were obtained:
[1] = system: NF-κB pathway (SEAP) in THP1-Dual cells; test: THP-1 Dual cell SEAP assay (L18-MDP stimulated); format: cell-based; details: read-out: NFkB THP1 IC50
[2] = molecular target: GST-RIPK2 fusion protein (human RIPK2 amino acids 1-310) (Homo sapiens (Human), UniProt O43353); test: RIPK2 binding competition assay (TR-FRET, Tracer 199)
Sequence of GST-RIPK2 fusion protein (human RIPK2 amino acids 1-310) (O43353 1-310): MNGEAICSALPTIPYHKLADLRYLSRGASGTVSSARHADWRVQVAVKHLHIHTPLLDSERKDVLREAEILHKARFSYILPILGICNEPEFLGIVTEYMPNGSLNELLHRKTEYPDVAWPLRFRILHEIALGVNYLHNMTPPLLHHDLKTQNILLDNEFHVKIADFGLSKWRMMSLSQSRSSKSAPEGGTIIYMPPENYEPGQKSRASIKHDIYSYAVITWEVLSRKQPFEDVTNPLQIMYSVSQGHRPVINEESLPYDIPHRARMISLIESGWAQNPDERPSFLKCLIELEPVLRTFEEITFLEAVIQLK

[3] = read-out: RIPK2 IC50, RIPK2 binding competition assay

SMILES | IC50 ([1]; Homo sapiens, THP1-Dual) [µM] | IC50 [2] [µM] | IC50 [2, 3] [µM] | IC50 [1] [µM]
COc1cc2ncc(-c3cc(F)c(OC)c(NCCCO)c3)n2cc1S(=O)(=O)C(C)(C)C [Example 319, 3-((5-(6-(tert-butylsulfonyl)-7-methoxyimidazo[1,2-a]pyridin-3-yl)-3-fluoro-2-methoxyphenyl)amino)propan-1-ol] | 0.05 to 0.25 | 0.001 to 0.0025 | – | –
COc1cc2ncc(-c3cccc(NCCCO)c3)n2cc1S(=O)(=O)C(C)(C)C [Example 320, 3-((3-(6-(tert-butylsulfonyl)-7-methoxyimidazo[1,2-a]pyridin-3-yl)phenyl)amino)propan-1-ol] | > 1 | – | > 0.02 | –
COc1cc2ncc(-c3cc(C)c(OC)c(NCCCO)c3)n2cc1S(=O)(=O)C(C)(C)C [Example 322, 3-((5-(6-(tert-butylsulfonyl)-7-methoxyimidazo[1,2-a]pyridin-3-yl)-2-methoxy-3-methylphenyl)amino)propan-1-ol] | > 1 | 0.0025 to 0.02 | – | –
COc1cc2ncc(-c3cnn(CCCO)c3)n2cc1S(=O)(=O)C(C)(C)C [Example 323, 3-(4-(6-(tert-butylsulfonyl)-7-methoxyimidazo[1,2-a]pyridin-3-yl)-1H-pyrazol-1-yl)propan-1-ol] | > 1 | – | > 0.02 | –
COc1cc2ncc(-c3cnn(CCO)c3)n2cc1S(=O)(=O)C(C)(C)C [Example 324, 2-(4-(6-(tert-butylsulfonyl)-7-methoxyimidazo[1,2-a]pyridin-3-yl)-1H-pyrazol-1-yl)ethan-1-ol] | > 1 | – | > 0.02 | –
CCCS(=O)(=O)N(C)c1cc(-c2cnc3cc(OC)c(S(=O)(=O)C(C)(C)C)cn23)cc(OC)c1C [Example 325, N-(5-(6-(tert-butylsulfonyl)-7-methoxyimidazo[1,2-a]pyridin-3-yl)-3-methoxy-2-methylphenyl)-N-methylpropane-1-sulfonamide] | > 1 | – | > 0.02 | –
CNc1cc(-c2cnc3cc(OC)c(S(=O)(=O)C(C)(C)C)cn23)cc(OC)c1OC [Example 326, 5-(6-(tert-butylsulfonyl)-7-methoxyimidazo[1,2-a]pyridin-3-yl)-2,3-dimethoxy-N-methylaniline] | 0.05 to 0.25 | 0.001 to 0.0025 | – | –
COc1cc2ncc(-c3cc(Cl)nc(NCCCO)c3)n2cc1S(=O)(=O)C(C)(C)C [Example 327, 3-((4-(6-(tert-butylsulfonyl)-7-methoxyimidazo[1,2-a]pyridin-3-yl)-6-chloropyridin-2-yl)amino)propan-1-ol] | < 0.05 | 0.001 to 0.0025 | – | –
COc1cc2ncc(-c3cc(N)c(=O)n(C(F)F)c3)n2cc1S(=O)(=O)C(C)(C)C [Example 328, 3-amino-5-(6-(tert-butylsulfonyl)-7-methoxyimidazo[1,2-a]pyridin-3-yl)-1-(difluoromethyl) pyridin-2(1H)-one] | > 1 | – | > 0.02 | –
COc1cc2ncc(-c3cc(F)c(OC)c(NCCN)c3)n2cc1S(=O)(=O)C(C)(C)C [Example 329, N1-(5-(6-(tert-butylsulfonyl)-7-methoxyimidazo[1,2-a]pyridin-3-yl)-3-fluoro-2-methoxyphenyl) ethane-1,2-diamine] | 0.25 to 1 | 0.0025 to 0.02 | – | –
CC(C)(C)S(=O)(=O)c1ccc2ncc(-c3cc(N)nc(F)c3)n2c1 [Example 330, 4-(6-(tert-butylsulfonyl)imidazo[1,2-a]pyridin-3-yl)-6-fluoropyridin-2-amine] | 0.25 to 1 | 0.0025 to 0.02 | – | –
CCc1ccc(-c2cnc3cc(OC)c(S(=O)(=O)C(C)(C)C)cn23)nc1N [Example 331, 6-(6-(tert-butylsulfonyl)-7-methoxyimidazo[1,2-a]pyridin-3-yl)-3-ethylpyridin-2-amine] | > 1 | – | > 0.02 | –
COc1cc2ncc(-c3ccc(C)c(N)n3)n2cc1S(=O)(=O)C(C)(C)C [Example 332, 6-(6-(tert-butylsulfonyl)-7-methoxyimidazo[1,2-a]pyridin-3-yl)-3-methylpyridin-2-amine] | > 1 | – | > 0.02 | –
COc1cc2ncc(-c3cc(N)c(C#N)c(F)c3)n2cc1S(=O)(=O)C(C)(C)C [Example 333, 2-amino-4-(6-(tert-butylsulfonyl)-7-methoxyimidazo[1,2-a]pyridin-3-yl)-6-fluorobenzonitrile] | 0.25 to 1 | 0.0025 to 0.02 | – | –
COc1cc2ncc(-c3ccc(OC(F)(F)F)c(N)n3)n2cc1S(=O)(=O)C(C)(C)C [Example 334, 6-(6-(tert-butylsulfonyl)-7-methoxyimidazo[1,2-a]pyridin-3-yl)-3-(trifluoromethoxy)pyridin-2-amine] | > 1 | – | > 0.02 | –
COc1cc2ncc(-c3cc(C)c(OC)c(N)n3)n2cc1S(=O)(=O)C(C)(C)C [Example 335, 6-(6-(tert-butylsulfonyl)-7-methoxyimidazo[1,2-a]pyridin-3-yl)-3-methoxy-4-methylpyridin-2-amine] | > 1 | > 0.02 | – | –
COc1cc2ncc(-c3ccc(OC)c(N)n3)n2cc1S(=O)(=O)C(C)(C)C [Example 336, 6-(6-(tert-butylsulfonyl)-7-methoxyimidazo[1,2-a]pyridin-3-yl)-3-methoxypyridin-2-amine] | > 1 | – | > 0.02 | –
COc1cc2ncc(-c3cc(F)c(OC)c(C(C)(C)O)c3)n2cc1S(=O)(=O)C(C)(C)C [Example 337, 2-(5-(6-(tert-butylsulfonyl)-7-methoxyimidazo[1,2-a]pyridin-3-yl)-3-fluoro-2-methoxyphenyl)propan-2-ol] | 0.25 to 1 | 0.001 to 0.0025 | – | –
COc1cc2ncc(-c3cc(F)c(OC)c(OCCO)c3)n2cc1S(=O)(=O)C(C)(C)C [Example 338, 2-(5-(6-(tert-butylsulfonyl)-7-methoxyimidazo[1,2-a]pyridin-3-yl)-3-fluoro-2-methoxyphenoxy)ethan-1-ol] | > 1 | 0.0025 to 0.02 | – | –
COc1cc2ncc(-c3cc(F)c(OC)c(C4CC4)c3)n2cc1S(=O)(=O)C(C)(C)C [Example 340] | 0.05 to 0.25 | 0.001 to 0.0025 | – | –
CCCS(=O)(=O)Nc1nc(-c2cnc3cc(OC)c(S(=O)(=O)C(C)(C)C)cn23)ccc1OC [compound 314, N-(6-(6-(tert-butylsulfonyl)-7-methoxyimidazo[1,2-a]pyridin-3-yl)-3-methoxypyridin-2-yl)propane-1-sulfonamide] | > 1 | – | > 0.02 | –
COc1cc2ncc(-c3cc(F)nc(NCCS(C)(=N)=O)c3)n2cc1S(=O)(=O)C(C)(C)C (stereo not drawn) [compound 316] | – | – | 0.0025 to 0.02 | 0.25 to 1
COc1cc(NCCCO)cc(-c2cnc3cc(OC)c(S(=O)(=O)C(C)(C)C)cn23)n1 [compound 321, 3-((2-(6-(tert-butylsulfonyl)-7-methoxyimidazo[1,2-a]pyridin-3-yl)-6-methoxypyridin-4-yl)amino)propan-1-ol] | > 1 | – | > 0.02 | –
COc1cc2ncc(-c3cc(F)c(OC)c(OCCCO)c3)n2cc1S(=O)(=O)C(C)(C)C [compound 339, 3-(5-(6-(tert-butylsulfonyl)-7-methoxyimidazo[1,2-a]pyridin-3-yl)-3-fluoro-2-methoxyphenoxy) propan-1-ol] | > 1 | 0.0025 to 0.02 | – | –
